System: NOMO-1
Assay: not given
Conditions: 72 h
Method in brief: (§1)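 In 384-well plates holding acoustically pre-printed compounds at five tenfold doses from 1 to 10,000 nM, in duplicate, fifteen myeloid leukaemia cell lines were grown in RPMI 1640 for 72 h at 37 °C with 5% CO2. Luminescent ATP viability was scaled between vehicle and a positive control at 10 µM. The IC50 was then taken from log-logistic dose–response fits with four parameters.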

| Structure (SMILES) | IC50 (cell viability) [µM] |
| --- | --- |
| Cc1coc2c1C(=O)C(=O)c1c-2ccc2c1CCCC2(C)C [Tanshinone IIA] | > 10 |
| Cc1cn([C@H]2C[C@H](O)[C@@H](COP(=O)(O)OP(=O)(O)O)O2)c(=O)[nH]c1=O [Thymidine diphosphate] | > 10 |
| CN(C)c1cc(NC(=O)CNC(C)(C)C)c(O)c2c1C[C@H]1C[C@H]3[C@H](N(C)C)C(=O)C(C(N)=O)C(=O)[C@@]3(O)C(=O)C1C2=O (stereo partly drawn) [Tigecycline] | > 10 |
| COc1ccc2c(C(=S)N(C)CC(=O)O)cccc2c1C(F)(F)F [Tolrestat] | > 10 |
| CC[C@@]1(O)C(=O)OCc2c1cc1n(c2=O)Cc2cc3c(CN(C)C)c(O)ccc3nc2-1 [Topotecan] | 0.0405 |
| CCC(=O)N1CCN(c2ccc(-n3c(=O)ccc4cnc5ccc(-c6cnc7ccccc7c6)cc5c43)cc2C(F)(F)F)CC1 [Torin1] | 0.672 |

System: ML-2
Assay: not given
Conditions: 72 h
Method in brief: as §1

| Structure (SMILES) | IC50 (cell viability) [µM] |
| --- | --- |
| O[C@H]1[C@H]2[C@H](O)CCCN2C[C@H]1O [Swainsonine] | > 10 |
| Cc1coc2c1C(=O)C(=O)c1c-2ccc2c1CCCC2(C)C [Tanshinone IIA] | > 10 |
| Cc1cn([C@H]2C[C@H](O)[C@@H](COP(=O)(O)OP(=O)(O)O)O2)c(=O)[nH]c1=O [Thymidine diphosphate] | > 10 |
| CN(C)c1cc(NC(=O)CNC(C)(C)C)c(O)c2c1C[C@H]1C[C@H]3[C@H](N(C)C)C(=O)C(C(N)=O)C(=O)[C@@]3(O)C(=O)C1C2=O (stereo partly drawn) [Tigecycline] | > 10 |
| COc1ccc2c(C(=S)N(C)CC(=O)O)cccc2c1C(F)(F)F [Tolrestat] | > 10 |
| CC[C@@]1(O)C(=O)OCc2c1cc1n(c2=O)Cc2cc3c(CN(C)C)c(O)ccc3nc2-1 [Topotecan] | 0.0245 |
| CCC(=O)N1CCN(c2ccc(-n3c(=O)ccc4cnc5ccc(-c6cnc7ccccc7c6)cc5c43)cc2C(F)(F)F)CC1 [Torin1] | 0.616 |

System: THP-1
Assay: not given
Conditions: 72 h
Method in brief: as §1

| Structure (SMILES) | IC50 (cell viability) [µM] |
| --- | --- |
| O[C@H]1[C@H]2[C@H](O)CCCN2C[C@H]1O [Swainsonine] | > 10 |
| Cc1coc2c1C(=O)C(=O)c1c-2ccc2c1CCCC2(C)C [Tanshinone IIA] | > 10 |
| Cc1cn([C@H]2C[C@H](O)[C@@H](COP(=O)(O)OP(=O)(O)O)O2)c(=O)[nH]c1=O [Thymidine diphosphate] | > 10 |
| CN(C)c1cc(NC(=O)CNC(C)(C)C)c(O)c2c1C[C@H]1C[C@H]3[C@H](N(C)C)C(=O)C(C(N)=O)C(=O)[C@@]3(O)C(=O)C1C2=O (stereo partly drawn) [Tigecycline] | > 10 |
| COc1ccc2c(C(=S)N(C)CC(=O)O)cccc2c1C(F)(F)F [Tolrestat] | > 10 |
| CC[C@@]1(O)C(=O)OCc2c1cc1n(c2=O)Cc2cc3c(CN(C)C)c(O)ccc3nc2-1 [Topotecan] | 0.289 |
| CCC(=O)N1CCN(c2ccc(-n3c(=O)ccc4cnc5ccc(-c6cnc7ccccc7c6)cc5c43)cc2C(F)(F)F)CC1 [Torin1] | 1.11 |

System: SHI-1
Assay: not given
Conditions: 72 h
Method in brief: as §1

| Structure (SMILES) | IC50 (cell viability) [µM] |
| --- | --- |
| O[C@H]1[C@H]2[C@H](O)CCCN2C[C@H]1O [Swainsonine] | > 10 |
| Cc1coc2c1C(=O)C(=O)c1c-2ccc2c1CCCC2(C)C [Tanshinone IIA] | > 10 |
| Cc1cn([C@H]2C[C@H](O)[C@@H](COP(=O)(O)OP(=O)(O)O)O2)c(=O)[nH]c1=O [Thymidine diphosphate] | > 10 |
| CN(C)c1cc(NC(=O)CNC(C)(C)C)c(O)c2c1C[C@H]1C[C@H]3[C@H](N(C)C)C(=O)C(C(N)=O)C(=O)[C@@]3(O)C(=O)C1C2=O (stereo partly drawn) [Tigecycline] | > 10 |
| COc1ccc2c(C(=S)N(C)CC(=O)O)cccc2c1C(F)(F)F [Tolrestat] | > 10 |
| CC[C@@]1(O)C(=O)OCc2c1cc1n(c2=O)Cc2cc3c(CN(C)C)c(O)ccc3nc2-1 [Topotecan] | 0.024 |
| CCC(=O)N1CCN(c2ccc(-n3c(=O)ccc4cnc5ccc(-c6cnc7ccccc7c6)cc5c43)cc2C(F)(F)F)CC1 [Torin1] | > 10 |

System: BV-173
Assay: not given
Conditions: 72 h
Method in brief: as §1

| Structure (SMILES) | IC50 (cell viability) [µM] |
| --- | --- |
| O[C@H]1[C@H]2[C@H](O)CCCN2C[C@H]1O [Swainsonine] | > 10 |
| Cc1coc2c1C(=O)C(=O)c1c-2ccc2c1CCCC2(C)C [Tanshinone IIA] | > 10 |
| Cc1cn([C@H]2C[C@H](O)[C@@H](COP(=O)(O)OP(=O)(O)O)O2)c(=O)[nH]c1=O [Thymidine diphosphate] | 4.03 |
| CN(C)c1cc(NC(=O)CNC(C)(C)C)c(O)c2c1C[C@H]1C[C@H]3[C@H](N(C)C)C(=O)C(C(N)=O)C(=O)[C@@]3(O)C(=O)C1C2=O (stereo partly drawn) [Tigecycline] | > 10 |
| COc1ccc2c(C(=S)N(C)CC(=O)O)cccc2c1C(F)(F)F [Tolrestat] | > 10 |
| CC[C@@]1(O)C(=O)OCc2c1cc1n(c2=O)Cc2cc3c(CN(C)C)c(O)ccc3nc2-1 [Topotecan] | 0.0114 |
| CCC(=O)N1CCN(c2ccc(-n3c(=O)ccc4cnc5ccc(-c6cnc7ccccc7c6)cc5c43)cc2C(F)(F)F)CC1 [Torin1] | 0.377 |

System: LAMA-84
Assay: not given
Conditions: 72 h
Method in brief: as §1

| Structure (SMILES) | IC50 (cell viability) [µM] |
| --- | --- |
| O[C@H]1[C@H]2[C@H](O)CCCN2C[C@H]1O [Swainsonine] | > 10 |
| Cc1coc2c1C(=O)C(=O)c1c-2ccc2c1CCCC2(C)C [Tanshinone IIA] | > 10 |
| Cc1cn([C@H]2C[C@H](O)[C@@H](COP(=O)(O)OP(=O)(O)O)O2)c(=O)[nH]c1=O [Thymidine diphosphate] | > 10 |
| CN(C)c1cc(NC(=O)CNC(C)(C)C)c(O)c2c1C[C@H]1C[C@H]3[C@H](N(C)C)C(=O)C(C(N)=O)C(=O)[C@@]3(O)C(=O)C1C2=O (stereo partly drawn) [Tigecycline] | > 10 |
| COc1ccc2c(C(=S)N(C)CC(=O)O)cccc2c1C(F)(F)F [Tolrestat] | > 10 |
| CC[C@@]1(O)C(=O)OCc2c1cc1n(c2=O)Cc2cc3c(CN(C)C)c(O)ccc3nc2-1 [Topotecan] | 0.0654 |
| CCC(=O)N1CCN(c2ccc(-n3c(=O)ccc4cnc5ccc(-c6cnc7ccccc7c6)cc5c43)cc2C(F)(F)F)CC1 [Torin1] | 0.222 |

System: MV4-11
Assay: not given
Conditions: 72 h
Method in brief: as §1

| Structure (SMILES) | IC50 (cell viability) [µM] |
| --- | --- |
| O[C@H]1[C@H]2[C@H](O)CCCN2C[C@H]1O [Swainsonine] | > 10 |
| Cc1coc2c1C(=O)C(=O)c1c-2ccc2c1CCCC2(C)C [Tanshinone IIA] | > 10 |
| Cc1cn([C@H]2C[C@H](O)[C@@H](COP(=O)(O)OP(=O)(O)O)O2)c(=O)[nH]c1=O [Thymidine diphosphate] | > 10 |
| CN(C)c1cc(NC(=O)CNC(C)(C)C)c(O)c2c1C[C@H]1C[C@H]3[C@H](N(C)C)C(=O)C(C(N)=O)C(=O)[C@@]3(O)C(=O)C1C2=O (stereo partly drawn) [Tigecycline] | > 10 |
| COc1ccc2c(C(=S)N(C)CC(=O)O)cccc2c1C(F)(F)F [Tolrestat] | > 10 |
| CC[C@@]1(O)C(=O)OCc2c1cc1n(c2=O)Cc2cc3c(CN(C)C)c(O)ccc3nc2-1 [Topotecan] | 0.0119 |
| CCC(=O)N1CCN(c2ccc(-n3c(=O)ccc4cnc5ccc(-c6cnc7ccccc7c6)cc5c43)cc2C(F)(F)F)CC1 [Torin1] | 0.486 |

System: HL-60
Assay: not given
Conditions: 72 h
Method in brief: as §1

| Structure (SMILES) | IC50 (cell viability) [µM] |
| --- | --- |
| O[C@H]1[C@H]2[C@H](O)CCCN2C[C@H]1O [Swainsonine] | > 10 |
| Cc1coc2c1C(=O)C(=O)c1c-2ccc2c1CCCC2(C)C [Tanshinone IIA] | > 10 |
| Cc1cn([C@H]2C[C@H](O)[C@@H](COP(=O)(O)OP(=O)(O)O)O2)c(=O)[nH]c1=O [Thymidine diphosphate] | > 10 |
| CN(C)c1cc(NC(=O)CNC(C)(C)C)c(O)c2c1C[C@H]1C[C@H]3[C@H](N(C)C)C(=O)C(C(N)=O)C(=O)[C@@]3(O)C(=O)C1C2=O (stereo partly drawn) [Tigecycline] | > 10 |
| COc1ccc2c(C(=S)N(C)CC(=O)O)cccc2c1C(F)(F)F [Tolrestat] | > 10 |
| CC[C@@]1(O)C(=O)OCc2c1cc1n(c2=O)Cc2cc3c(CN(C)C)c(O)ccc3nc2-1 [Topotecan] | 0.0225 |
| CCC(=O)N1CCN(c2ccc(-n3c(=O)ccc4cnc5ccc(-c6cnc7ccccc7c6)cc5c43)cc2C(F)(F)F)CC1 [Torin1] | 1.75 |

System: HEL
Assay: cell viability (% survival relative to DMSO control, bortezomib = 0%); higher = less cytotoxic
Conditions: 1 nM; 72 h
Method in brief: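 Percent survival is reported as the mean of duplicate wells. Cells from 10 AML and 5 CML lines were plated in 384-well plates containing compounds at 1, 10, 100, 1000 or 10000 nM and kept for 72 h at 37 °C in 5% CO2. Readout used CellTiter-Glo luminescence, scaled so that vehicle equals 100% and a 10 µM positive control equals 0%.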

| Structure (SMILES) | cell viability [%] |
| --- | --- |
| O[C@H]1[C@H]2[C@H](O)CCCN2C[C@H]1O [Swainsonine] | 99.2 |
| Cc1coc2c1C(=O)C(=O)c1c-2ccc2c1CCCC2(C)C [Tanshinone IIA] | 91 |
| Cc1cn([C@H]2C[C@H](O)[C@@H](COP(=O)(O)OP(=O)(O)O)O2)c(=O)[nH]c1=O [Thymidine diphosphate] | 99.1 |
| CN(C)c1cc(NC(=O)CNC(C)(C)C)c(O)c2c1C[C@H]1C[C@H]3[C@H](N(C)C)C(=O)C(C(N)=O)C(=O)[C@@]3(O)C(=O)C1C2=O (stereo partly drawn) [Tigecycline] | 110 |
| COc1ccc2c(C(=S)N(C)CC(=O)O)cccc2c1C(F)(F)F [Tolrestat] | 91.2 |
| CC[C@@]1(O)C(=O)OCc2c1cc1n(c2=O)Cc2cc3c(CN(C)C)c(O)ccc3nc2-1 [Topotecan] | 94.8 |
| CCC(=O)N1CCN(c2ccc(-n3c(=O)ccc4cnc5ccc(-c6cnc7ccccc7c6)cc5c43)cc2C(F)(F)F)CC1 [Torin1] | 109 |

Same assay, conditions: 10 nM; 72 h

| Structure (SMILES) | cell viability [%] |
| --- | --- |
| O[C@H]1[C@H]2[C@H](O)CCCN2C[C@H]1O [Swainsonine] | 83.9 |
| Cc1coc2c1C(=O)C(=O)c1c-2ccc2c1CCCC2(C)C [Tanshinone IIA] | 100 |
| Cc1cn([C@H]2C[C@H](O)[C@@H](COP(=O)(O)OP(=O)(O)O)O2)c(=O)[nH]c1=O [Thymidine diphosphate] | 89.4 |
| CN(C)c1cc(NC(=O)CNC(C)(C)C)c(O)c2c1C[C@H]1C[C@H]3[C@H](N(C)C)C(=O)C(C(N)=O)C(=O)[C@@]3(O)C(=O)C1C2=O (stereo partly drawn) [Tigecycline] | 92.4 |
| COc1ccc2c(C(=S)N(C)CC(=O)O)cccc2c1C(F)(F)F [Tolrestat] | 98.9 |
| CC[C@@]1(O)C(=O)OCc2c1cc1n(c2=O)Cc2cc3c(CN(C)C)c(O)ccc3nc2-1 [Topotecan] | 103 |
| CCC(=O)N1CCN(c2ccc(-n3c(=O)ccc4cnc5ccc(-c6cnc7ccccc7c6)cc5c43)cc2C(F)(F)F)CC1 [Torin1] | 105 |

Same assay, conditions: 100 nM; 72 h

| Structure (SMILES) | cell viability [%] |
| --- | --- |
| O[C@H]1[C@H]2[C@H](O)CCCN2C[C@H]1O [Swainsonine] | 108 |
| Cc1coc2c1C(=O)C(=O)c1c-2ccc2c1CCCC2(C)C [Tanshinone IIA] | 107 |
| Cc1cn([C@H]2C[C@H](O)[C@@H](COP(=O)(O)OP(=O)(O)O)O2)c(=O)[nH]c1=O [Thymidine diphosphate] | 93.2 |
| CN(C)c1cc(NC(=O)CNC(C)(C)C)c(O)c2c1C[C@H]1C[C@H]3[C@H](N(C)C)C(=O)C(C(N)=O)C(=O)[C@@]3(O)C(=O)C1C2=O (stereo partly drawn) [Tigecycline] | 101 |
| COc1ccc2c(C(=S)N(C)CC(=O)O)cccc2c1C(F)(F)F [Tolrestat] | 95 |
| CC[C@@]1(O)C(=O)OCc2c1cc1n(c2=O)Cc2cc3c(CN(C)C)c(O)ccc3nc2-1 [Topotecan] | 0.201 |
| CCC(=O)N1CCN(c2ccc(-n3c(=O)ccc4cnc5ccc(-c6cnc7ccccc7c6)cc5c43)cc2C(F)(F)F)CC1 [Torin1] | 99.3 |

Same assay, conditions: 1000 nM; 72 h

| Structure (SMILES) | cell viability [%] |
| --- | --- |
| O[C@H]1[C@H]2[C@H](O)CCCN2C[C@H]1O [Swainsonine] | 97.3 |
| Cc1coc2c1C(=O)C(=O)c1c-2ccc2c1CCCC2(C)C [Tanshinone IIA] | 111 |

— the supplement of paper PMC8671470
